In patent US8058295B2, “Cystic fibrosis transmembrane conductance regulator protein inhibitors and uses thereof” (The Regents of the University of California, priority 2002, dated 2011):

What was measured:
wildtype CFTR = wildtype CFTR (Homo sapiens, UniProt P13569); assay: YFP fluorescence assay of CFTR-mediated I^− transport in FRT cells; format: cell-based; parameters: expressed in transfected cells; host or cells: Fischer rat thyroid (FRT) cells; settings: relative to CFTRinh-172 = 1.0
Description: FIG. 1A is a schematic representation of a screening technique used for detection of CFTR inhibitors. CFTR was maximally stimulated by multiple agonists in stably transfected epithelial cells co-expressing human CFTR and a yellow fluorescent protein (YFP) having Cl^−/I^− sensitive fluorescence. After addition of a test compound, I^− influx was induced by adding an I^− containing solution.
Cells were plated in 96-well black-walled microplates (Corning Costar) at a density of 20,000 cells per well in Coon's modified F12 medium supplemented with 5% fetal calf serum, 2 mM L-glutamine, 100 U/mL penicillin, and 100 μg/mL streptomycin. Assays were done at 48 hours after plating at which time cells were just confluent (˜40,000 cells per well).
Assays were done using a customized screening system (Beckman) consisting of a 3-meter robotic arm, CO2 incubator, plate washer, liquid handling workstation, bar code reader, delidding station, and two FluoStar fluorescence plate readers (BMG Labtechnologies, Offenburg, Germany), each equipped with two syringe pumps and HQ500/20X (500±10 nm) excitation and HQ535/30M (535±15 nm) emission filters (Chroma). The robotic system was integrated using SAMI version 3.3 software (Beckman) modified for two plate readers. Custom software was written in VBA (Visual Basic for Applications) to compute baseline-subtracted, normalized fluorescence slopes (giving halide influx rates) from stored data files.
The assay was set-up by loading the incubator (37° C., 90% humidity, 5% CO2) with 40-60 96-well plates containing the FRT cells, and loading a carousel with 96-well plates containing test compounds and disposable plastic pipette tips. To initiate the assay, each well of a 96-well plate was washed 3 times in PBS (300 μL/wash), leaving 50 μL PBS. Ten μL of a CFTR-activating cocktail (5 μM forskolin, 100 μM IBMX, 25 μM apigenin in PBS) was added, and after 5 min one test compound (0.5 μL of 1 mM DMSO solution) was added to each well to give 10 μM final concentration. After 10 min, 96-well plates were transferred to a plate reader for fluorescence assay. Each well was assayed individually for CFTR-mediated I^− transport by recording fluorescence continuously (200 ms per point) for 2 s (baseline) and then for 12 s after rapid (<0.5 s) addition of 160 μL of isosmolar PBS in which 137 mM Cl^− was replaced by I^−.
The primary screening technique used to identify the compounds of the invention was designed to identify inhibitors of CFTR Cl^− conductance by direct CFTR-inhibitor interaction. CFTR was pre-stimulated in CFTR-expressing FRT cells by an activating cocktail containing forskolin, IBMX and apigenin, as shown schematically in FIG. 1A. The activation of CFTR by multiple mechanisms (cAMP elevation, phosphodiesterase inhibition, and direct CFTR binding) allowed identification of inhibitors that blocked the CFTR Cl^− transporting pathway directly rather than more proximal step(s) in a signaling pathway. The FRT cells co-expressed a yellow fluorescent protein-based Cl^−/I^− sensor that provided a quantitative fluorescence read-out of inhibition potency (See, e.g., Jayaraman et al., 2000, J. Biol. Chem. 275:6047-6050; Galietta et al., 2001, Am. J. Physiol. 281:C1734-C1742.). After CFTR pre-stimulation and compound addition, cells were subjected to an inwardly-directed I^− gradient to drive I^− influx and produce decreasing fluorescence. Each assay consisted of recording baseline fluorescence for 2 seconds, followed by 12 seconds of continuous recording of fluorescence after rapid addition of the I^− containing solution. Compounds were tested separately at 10 μM concentration in a 96-well format utilizing a fully-automated high-throughput screening apparatus (see Example 2 below).

Caco-2 monolayers = settings: literature values, Stenberg et al.; cited from earlier work
MDR-1 = target: T1, MDR-1 (Homo sapiens, UniProt P08183); assay: MDR-1 activity, ^3H-vincristine accumulation in 9HTEo-/Dx cells; format: cell-based; settings: 100 μM
T1 construct: endogenous in cells; host or cells: 9HTEo-/Dx cells
T1 sequence (P08183 whole entry): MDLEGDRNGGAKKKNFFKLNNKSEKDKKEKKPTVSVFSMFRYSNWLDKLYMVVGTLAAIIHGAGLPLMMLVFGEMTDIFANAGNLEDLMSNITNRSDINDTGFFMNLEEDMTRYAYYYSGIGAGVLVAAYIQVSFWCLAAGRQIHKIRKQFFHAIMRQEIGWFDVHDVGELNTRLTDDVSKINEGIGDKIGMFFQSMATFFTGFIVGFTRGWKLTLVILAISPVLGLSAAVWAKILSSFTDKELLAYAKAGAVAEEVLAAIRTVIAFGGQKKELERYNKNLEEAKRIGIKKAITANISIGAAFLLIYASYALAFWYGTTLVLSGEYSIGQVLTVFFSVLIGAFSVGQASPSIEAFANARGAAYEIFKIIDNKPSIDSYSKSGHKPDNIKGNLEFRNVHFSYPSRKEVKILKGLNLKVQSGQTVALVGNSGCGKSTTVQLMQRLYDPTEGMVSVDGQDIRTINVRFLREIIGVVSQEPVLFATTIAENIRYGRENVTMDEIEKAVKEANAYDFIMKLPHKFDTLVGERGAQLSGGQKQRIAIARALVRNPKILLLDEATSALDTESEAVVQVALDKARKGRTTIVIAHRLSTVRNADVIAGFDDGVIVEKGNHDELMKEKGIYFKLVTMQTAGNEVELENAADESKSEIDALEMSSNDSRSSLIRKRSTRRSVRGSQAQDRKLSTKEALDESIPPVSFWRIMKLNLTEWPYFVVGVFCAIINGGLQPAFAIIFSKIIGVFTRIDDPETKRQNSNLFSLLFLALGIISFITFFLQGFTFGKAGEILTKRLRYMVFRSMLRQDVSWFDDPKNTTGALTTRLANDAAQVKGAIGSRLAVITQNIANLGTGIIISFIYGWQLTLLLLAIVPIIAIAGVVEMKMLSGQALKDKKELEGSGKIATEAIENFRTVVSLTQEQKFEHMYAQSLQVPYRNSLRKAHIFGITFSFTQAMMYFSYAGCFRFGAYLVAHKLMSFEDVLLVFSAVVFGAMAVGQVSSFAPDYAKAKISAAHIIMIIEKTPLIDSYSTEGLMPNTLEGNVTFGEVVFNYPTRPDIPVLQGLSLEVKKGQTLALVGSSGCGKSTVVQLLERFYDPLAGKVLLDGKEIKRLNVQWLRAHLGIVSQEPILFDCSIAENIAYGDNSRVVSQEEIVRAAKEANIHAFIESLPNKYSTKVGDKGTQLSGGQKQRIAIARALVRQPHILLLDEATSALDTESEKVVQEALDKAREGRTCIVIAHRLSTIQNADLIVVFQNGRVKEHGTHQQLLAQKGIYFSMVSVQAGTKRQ

Sequence of wildtype CFTR (P13569 whole entry): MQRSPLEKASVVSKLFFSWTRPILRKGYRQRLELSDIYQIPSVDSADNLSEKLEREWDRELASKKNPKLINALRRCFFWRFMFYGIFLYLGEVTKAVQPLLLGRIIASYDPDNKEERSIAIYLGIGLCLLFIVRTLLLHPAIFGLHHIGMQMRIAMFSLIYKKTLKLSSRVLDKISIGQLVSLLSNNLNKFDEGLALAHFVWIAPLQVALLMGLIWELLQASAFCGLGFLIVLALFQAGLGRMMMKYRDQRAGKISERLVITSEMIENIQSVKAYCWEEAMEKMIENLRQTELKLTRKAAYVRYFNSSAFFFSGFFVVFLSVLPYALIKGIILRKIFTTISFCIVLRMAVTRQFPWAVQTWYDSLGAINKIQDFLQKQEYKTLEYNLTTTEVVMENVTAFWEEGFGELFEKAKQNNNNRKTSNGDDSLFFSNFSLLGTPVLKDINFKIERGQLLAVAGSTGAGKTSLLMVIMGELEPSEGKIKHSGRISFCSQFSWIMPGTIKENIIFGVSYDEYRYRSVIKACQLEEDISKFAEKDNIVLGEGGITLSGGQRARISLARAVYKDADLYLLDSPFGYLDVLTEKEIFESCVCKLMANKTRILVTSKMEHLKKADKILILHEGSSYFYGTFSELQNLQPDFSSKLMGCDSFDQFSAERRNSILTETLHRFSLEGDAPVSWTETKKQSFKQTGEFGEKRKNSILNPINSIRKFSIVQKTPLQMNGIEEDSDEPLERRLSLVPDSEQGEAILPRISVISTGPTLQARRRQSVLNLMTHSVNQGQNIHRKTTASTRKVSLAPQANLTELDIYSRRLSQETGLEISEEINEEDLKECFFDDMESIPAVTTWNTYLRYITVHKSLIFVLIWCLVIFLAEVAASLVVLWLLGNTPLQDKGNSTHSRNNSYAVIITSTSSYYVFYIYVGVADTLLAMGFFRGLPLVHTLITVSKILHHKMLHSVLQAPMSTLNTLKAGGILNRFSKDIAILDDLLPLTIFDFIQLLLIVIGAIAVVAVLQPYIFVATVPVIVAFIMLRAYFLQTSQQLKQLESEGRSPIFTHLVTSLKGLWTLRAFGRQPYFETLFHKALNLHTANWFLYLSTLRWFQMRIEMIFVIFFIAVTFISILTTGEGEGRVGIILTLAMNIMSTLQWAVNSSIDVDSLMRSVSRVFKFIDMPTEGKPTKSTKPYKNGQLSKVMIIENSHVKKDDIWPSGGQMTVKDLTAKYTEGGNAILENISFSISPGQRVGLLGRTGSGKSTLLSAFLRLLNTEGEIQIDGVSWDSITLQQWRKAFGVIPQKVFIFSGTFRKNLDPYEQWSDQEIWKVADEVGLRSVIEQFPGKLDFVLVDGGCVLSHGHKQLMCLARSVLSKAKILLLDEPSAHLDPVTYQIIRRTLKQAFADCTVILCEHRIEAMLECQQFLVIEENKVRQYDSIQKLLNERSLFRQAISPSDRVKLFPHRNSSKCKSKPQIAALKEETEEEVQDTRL

| Structure (SMILES) | relative potency (CFTR inhibition) (wildtype CFTR) | further results |
| --- | --- | --- |
| O=C(O)c1ccccc1C=C1SC(=S)N(c2ccccc2C(F)(F)F)C1=O [2, 3, 3-[(a-trifluoromethyl)phenyl]-5-[(b-carboxyphenyl)methylene]-2-thioxo-4-thiazolidinone] | 0.70 | – |
| O=C(O)c1ccccc1C=C1SC(=S)N(c2ccccc2C(F)(F)F)C1=O [2, 4, 3-[(a-trifluoromethyl)phenyl]-5-[(b-carboxyphenyl)methylene]-2-thioxo-4-thiazolidinone] | 0.66 | – |
| O=C(O)c1ccccc1C=C1SC(=S)N(c2ccccc2C(F)(F)F)C1=O [3, 2, 3-[(a-trifluoromethyl)phenyl]-5-[(b-carboxyphenyl)methylene]-2-thioxo-4-thiazolidinone] | 0.74 | – |
| O=C(O)c1ccccc1C=C1SC(=S)N(c2ccccc2C(F)(F)F)C1=O [3, 3, 3-[(a-trifluoromethyl)phenyl]-5-[(b-carboxyphenyl)methylene]-2-thioxo-4-thiazolidinone] | 0.90 | – |
| O=C(O)c1ccccc1C=C1SC(=S)N(c2ccccc2C(F)(F)F)C1=O [4, 2, 3-[(a-trifluoromethyl)phenyl]-5-[(b-carboxyphenyl)methylene]-2-thioxo-4-thiazolidinone] | 0.67 | – |
| O=C(O)c1ccccc1C=C1SC(=S)N(c2ccccc2C(F)(F)F)C1=O [4, 3, 3-[(a-trifluoromethyl)phenyl]-5-[(b-carboxyphenyl)methylene]-2-thioxo-4-thiazolidinone] | 0.64 | – |
| O=C(O)c1ccccc1C=C1SC(=S)N(c2ccccc2C(F)(F)F)C1=O [4, 4, 3-[(a-trifluoromethyl)phenyl]-5-[(b-carboxyphenyl)methylene]-2-thioxo-4-thiazolidinone] | 0.56 | – |
| O=C1/C(=C/c2ccc([N+](=O)[O-])cc2)SC(=S)N1c1cccc(C(F)(F)F)c1 [CFTRinh-020, 3-[(3-trifluoromethyl)phenyl]-5-[(4-nitrophenyl)methylene]-2-thioxo-4-thiazolidinone] | 0.2 | – |
| O=C(O)Oc1ccc(/C=C2\SC(=S)N(c3cccc(C(F)(F)F)c3)C2=O)cc1 [CFTRinh-029, 3-[(3-trifluoromethyl)phenyl]-5-[(4-oxycarboxyphenyl)methylene]-2-thioxo-4-thiazolidinone] | 0.3 | – |
| O=C1/C(=C/c2ccc(O)c(O)c2)SC(=S)N1c1cccc(C(F)(F)F)c1 [CFTRinh-185, 3-[(3-trifluoromethyl)phenyl]-5-[(3,4-dihydroxyphenyl)methylene]-2-thioxo-4-thiazolidinone] | 0.2 | – |
| O=C1/C(=C/c2cc(Br)c(O)c(Br)c2)SC(=S)N1c1cccc(C(F)(F)F)c1 [CFTRinh-214, 3-[(3-trifluoromethyl)phenyl]-5-[(3,5-dibromo-4-hydroxyphenyl)methylene]-2-thioxo-4-thiazolidinone] | 0.1 | – |
| O=C1/C(=C/c2cc(Br)c(O)c([N+](=O)[O-])c2)SC(=S)N1c1cccc(C(F)(F)F)c1 [CFTRinh-236, 3-[(3-trifluoromethyl)phenyl]-5-[(3-bromo-4-hydroxy-5-nitrophenyl)methylene]-2-thioxo-4-thiazolidinone] | 0.1 | – |
| O=C(O)c1ccccc1C=C1SC(=S)N(c2ccccc2C(F)(F)F)C1=O [a=2, b=2, 3-[(a-trifluoromethyl)phenyl]-5-[(b-carboxyphenyl)methylene]-2-thioxo-4-thiazolidinone] | 0.69 | – |
| CC(C)NCC(O)COc1cccc2[nH]ccc12 (stereo not shown) [pindolol] | – | permeability coefficient (Caco-2 monolayers): 36 ×10⁻⁶ cm/s |
| CCCc1nn(C)c2c(=O)[nH]c(-c3cc(S(=O)(=O)N4CCN(C)CC4)ccc3OCC)nc12 [sildenafil] | – | permeability coefficient (Caco-2 monolayers): 48 ×10⁻⁶ cm/s |
| COc1ccc(CCN(C)CCCC(C#N)(c2ccc(OC)c(OC)c2)C(C)C)cc1OC (stereo not shown) [verapamil, reference compound] | – | vincristine accumulation (MDR-1): strongly increased |
